Results as given in patent US10611730B2, “Benzimidazolone and benzothiazolone compounds and their use as AMPA receptor modulators” (Janssen Pharmaceutica NV, priority 2015, dated 2020).

Molecular target: TARP γ8 dependent AMPA receptor (GluA1o-g8 fusion channel) (Homo sapiens (Human), UniProt P42261+Q8WXS5)
Assay: Calcium flux assay (FLIPR), HEK293 cells expressing GRIA1o-CACNG8 fusion
Assay type: cell-based
Settings: inhibition of calcium flux after 15 μM glutamate, read-out: GluR1-γ8 pIC50 (converted)
Method in brief: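 Stable HEK293 clone expressing GluA1o-γ8 fusion (1:1 stoichiometry), loaded with Calcium-5/6 dye plus test compound; glutamate-evoked fluorescence normalized to control wells. Concentration-response fitted to four-parameter logistic, midpoint taken as inhibitory potency.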

Chain of TARP γ8 dependent AMPA receptor (GluA1o-g8 fusion channel) (P42261 other isoform, or with tags, fused parts or gaps): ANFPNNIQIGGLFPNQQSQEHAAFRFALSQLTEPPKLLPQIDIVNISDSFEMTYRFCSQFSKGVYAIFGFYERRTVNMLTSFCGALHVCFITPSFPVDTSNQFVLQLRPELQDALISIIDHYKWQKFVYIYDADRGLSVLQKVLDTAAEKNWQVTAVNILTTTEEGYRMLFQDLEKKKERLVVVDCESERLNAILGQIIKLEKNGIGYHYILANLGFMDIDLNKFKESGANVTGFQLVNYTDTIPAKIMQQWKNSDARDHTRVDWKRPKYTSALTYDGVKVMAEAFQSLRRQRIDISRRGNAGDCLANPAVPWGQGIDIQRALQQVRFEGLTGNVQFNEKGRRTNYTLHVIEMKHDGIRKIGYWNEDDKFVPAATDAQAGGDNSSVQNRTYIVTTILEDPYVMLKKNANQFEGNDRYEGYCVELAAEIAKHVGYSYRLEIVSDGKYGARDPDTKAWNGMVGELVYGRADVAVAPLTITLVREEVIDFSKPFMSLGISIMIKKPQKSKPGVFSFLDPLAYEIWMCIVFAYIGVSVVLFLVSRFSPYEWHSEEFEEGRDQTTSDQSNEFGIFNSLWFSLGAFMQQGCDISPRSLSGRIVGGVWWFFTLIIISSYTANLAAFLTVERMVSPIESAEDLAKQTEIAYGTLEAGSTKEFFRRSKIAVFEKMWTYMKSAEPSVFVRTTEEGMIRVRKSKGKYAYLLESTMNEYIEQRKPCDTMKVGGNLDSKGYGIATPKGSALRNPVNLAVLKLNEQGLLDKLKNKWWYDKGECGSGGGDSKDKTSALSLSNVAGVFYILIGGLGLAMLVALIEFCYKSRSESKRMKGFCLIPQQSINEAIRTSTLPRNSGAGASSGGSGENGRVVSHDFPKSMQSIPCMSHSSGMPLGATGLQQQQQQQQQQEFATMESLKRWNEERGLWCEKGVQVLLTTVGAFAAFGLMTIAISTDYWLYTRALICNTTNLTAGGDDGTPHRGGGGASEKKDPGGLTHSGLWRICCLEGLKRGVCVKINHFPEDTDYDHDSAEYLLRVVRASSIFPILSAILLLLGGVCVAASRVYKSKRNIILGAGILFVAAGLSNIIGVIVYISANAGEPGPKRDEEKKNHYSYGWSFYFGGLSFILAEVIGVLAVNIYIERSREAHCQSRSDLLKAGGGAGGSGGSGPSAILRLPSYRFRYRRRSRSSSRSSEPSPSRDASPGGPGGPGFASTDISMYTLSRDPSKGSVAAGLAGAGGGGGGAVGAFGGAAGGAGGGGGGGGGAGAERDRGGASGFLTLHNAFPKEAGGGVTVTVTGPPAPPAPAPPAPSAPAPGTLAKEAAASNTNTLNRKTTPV

Row | Structure (SMILES) | IC50 [nM]
1 | O=c1[nH]c2ccc(-c3c(Cl)cccc3-c3ccc(F)nc3)cc2[nH]1 [Example 167, 5-[2-Chloro-6-(6-fluoro-3-pyridyl)phenyl]-1,3-dihydrobenzimidazol-2-one] | 316
2 | COc1cncc(-c2cccc(Cl)c2-c2ccc3[nH]c(=O)[nH]c3c2)c1 [Example 168, 5-[2-Chloro-6-(5-methoxy-3-pyridyl)phenyl]-1,3-dihydrobenzimidazol-2-one] | 398
3 | O=c1[nH]c2ccc(-c3c(Cl)cccc3-c3cncc(C(F)(F)F)c3)cc2[nH]1 [Example 169, 5-[2-Chloro-6-[5-(trifluoromethyl)-3-pyridyl]phenyl]-1,3-dihydrobenzimidazol-2-one] | 251
4 | O=c1[nH]c2ccc(-c3c(Cl)cccc3-c3ccncc3)cc2[nH]1 [Example 170, 5-[2-Chloro-6-(4-pyridyl)phenyl]-1,3-dihydrobenzimidazol-2-one] | 316
5 | COc1cnccc1-c1cccc(Cl)c1-c1ccc2[nH]c(=O)[nH]c2c1 [Example 171, 5-[2-Chloro-6-(3-methoxy-4-pyridyl)phenyl]-1,3-dihydrobenzimidazol-2-one] | 1000
6 | COCCn1cc(-c2cccc(Cl)c2-c2ccc3[nH]c(=O)[nH]c3c2)cn1 [Example 172, 5-[2-Chloro-6-[1-(2-methoxyethyl)pyrazol-4-yl]phenyl]-1,3-dihydrobenzimidazol-2-one] | 2000
7 | Cn1cc(-c2cccc(Cl)c2-c2ccc3[nH]c(=O)[nH]c3c2)cn1 [Example 173, 5-[2-Chloro-6-(1-methylpyrazol-4-yl)phenyl]-1,3-dihydrobenzimidazol-2-one] | 398
8 | Cc1noc(C)c1-c1cccc(Cl)c1-c1ccc2[nH]c(=O)[nH]c2c1 [Example 174, 5-[2-Chloro-6-(3,5-dimethylisoxazol-4-yl)phenyl]-1,3-dihydrobenzimidazol-2-one] | 794
9 | CC(C)n1nccc1-c1cccc(Cl)c1-c1ccc2[nH]c(=O)[nH]c2c1 [Example 175, 5-[2-Chloro-6-(2-isopropylpyrazol-3-yl)phenyl]-1,3-dihydrobenzimidazol-2-one] | 1260
10 | O=c1[nH]c2ccc(-c3c(Cl)cccc3-c3cn[nH]c3)cc2[nH]1 [Example 176, 5-[2-Chloro-6-(1H-pyrazol-4-yl)phenyl]-1,3-dihydrobenzimidazol-2-one] | 2000
11 | Cc1c(-c2cccc(Cl)c2-c2ccc3[nH]c(=O)[nH]c3c2)cnn1C [Example 177, 5-[2-Chloro-6-(1,5-dimethylpyrazol-4-yl)phenyl]-1,3-dihydrobenzimidazol-2-one] | 794
12 | O=c1[nH]c2ccc(-c3c(Cl)cccc3-c3cncnc3)cc2[nH]1 [Example 178, 5-(2-Chloro-6-pyrimidin-5-yl-phenyl)-1,3-dihydrobenzimidazol-2-one] | 3980
13 | Cc1cccc(-c2ccccc2)c1-c1ccc2[nH]c(=O)[nH]c2c1 [Example 179, 5-(2-Methyl-6-phenyl-phenyl)-1,3-dihydrobenzimidazol-2-one] | 63.1
14 | Cc1cccc(-c2ccccc2F)c1-c1ccc2[nH]c(=O)[nH]c2c1 [Example 180, 5-[2-(2-Fluorophenyl)-6-methyl-phenyl]-1,3-dihydrobenzimidazol-2-one] | 316
15 | Cc1cccc(-c2ccc(F)cc2)c1-c1ccc2[nH]c(=O)[nH]c2c1 [Example 181, 5-[2-(4-Fluorophenyl)-6-methyl-phenyl]-1,3-dihydrobenzimidazol-2-one] | 100
16 | COc1cccc(-c2cccc3cccnc23)c1-c1ccc2[nH]c(=O)[nH]c2c1 [Example 182, 5-[2-Methoxy-6-(8-quinolyl)phenyl]-1,3-dihydrobenzimidazol-2-one] | 1580
17 | Cn1ccc(-c2cccc(-c3ccc4[nH]c(=O)[nH]c4c3)c2Cl)n1 [Example 183, 5-[2-Chloro-3-(1-methylpyrazol-3-yl)phenyl]-1,3-dihydrobenzimidazol-2-one] | 1580
18 | O=c1[nH]c2ccc(-c3cccc(-c4ccncc4)c3Cl)cc2[nH]1 [Example 184, 5-[2-Chloro-3-(4-pyridyl)phenyl]-1,3-dihydrobenzimidazol-2-one] | 126
19 | Cn1cc(-c2cccc(-c3ccc4[nH]c(=O)[nH]c4c3)c2Cl)cn1 [Example 185, 5-[2-Chloro-3-(1-methylpyrazol-4-yl)phenyl]-1,3-dihydrobenzimidazol-2-one] | 50.1
20 | CC(C)(C)OC(=O)N1CCC=C(c2cccc(-c3ccc4[nH]c(=O)[nH]c4c3)c2Cl)C1 [Example 186, tert-Butyl 5-[2-chloro-3-(2-oxo-1,3-dihydrobenzimidazol-5-yl)phenyl]-3,6-dihydro-2H-pyridine-1-carboxylate] | 6.31
21 | O=c1[nH]c2ccc(-c3cccc(-n4ccnc4)c3Cl)cc2[nH]1 [Example 187, 5-(2-Chloro-3-imidazol-1-yl-phenyl)-1,3-dihydrobenzimidazol-2-one] | 3160
22 | O=c1[nH]c2ccc(-c3cccc(N4CCCCC4)c3Cl)cc2[nH]1 [Example 188, 5-[2-Chloro-3-(1-piperidyl)phenyl]-1,3-dihydrobenzimidazol-2-one] | 12.6

Row | Structure (SMILES) | IC50 [nM]
23 | CN(C)c1cccc(-c2ccc3[nH]c(=O)[nH]c3c2)c1Cl [Example 189, 5-[2-Chloro-3-(dimethylamino)phenyl]-1,3-dihydrobenzimidazol-2-one] | 3980
24 | O=c1[nH]c2ccc(-c3cccc(-c4nnco4)c3Cl)cc2[nH]1 [Example 190, 5-[2-Chloro-3-(1,3,4-oxadiazol-2-yl)phenyl]-1,3-dihydrobenzimidazol-2-one] | 2000
25 | Cc1nnc(-c2cccc(-c3ccc4[nH]c(=O)[nH]c4c3)c2Cl)o1 [Example 191, 5-[2-Chloro-3-(5-methyl-1,3,4-oxadiazol-2-yl)phenyl]-1,3-dihydrobenzimidazol-2-one] | 2000
26 | O=c1[nH]c2ccc(-c3c(Cl)ccc(-c4nnco4)c3Cl)cc2[nH]1 [Example 192, 5-[2,6-Dichloro-3-(1,3,4-oxadiazol-2-yl)phenyl]-1,3-dihydrobenzimidazol-2-one] | 631
27 | O=c1[nH]c2ccc(-c3cccc(-c4nnco4)c3Br)cc2[nH]1 [Example 193, 5-[2-Bromo-3-(1,3,4-oxadiazol-2-yl)phenyl]-1,3-dihydrobenzimidazol-2-one] | 251
28 | Cc1c(-c2ccc3[nH]c(=O)[nH]c3c2)cccc1-c1nnco1 [Example 194, 5-[2-Methyl-3-(1,3,4-oxadiazol-2-yl)phenyl]-1,3-dihydrobenzimidazol-2-one] | 501
29 | Cc1nnc(-c2cccc(-c3ccc4[nH]c(=O)[nH]c4c3)c2C)o1 [Example 195, 5-[2-Methyl-3-(5-methyl-1,3,4-oxadiazol-2-yl)phenyl]-1,3-dihydrobenzimidazol-2-one] | 2510
30 | O=c1[nH]c2ccc(-c3cccc(-c4nnc(C5CC5)o4)c3Cl)cc2[nH]1 [Example 196, 5-[2-Chloro-3-(5-cyclopropyl-1,3,4-oxadiazol-2-yl)phenyl]-1,3-dihydrobenzimidazol-2-one] | 316
31 | Cc1c(-c2ccc3[nH]c(=O)[nH]c3c2)cccc1-c1nnc(C2CC2)o1 [Example 197, 5-[3-(5-Cyclopropyl-1,3,4-oxadiazol-2-yl)-2-methyl-phenyl]-1,3-dihydrobenzimidazol-2-one] | 398
32 | Cc1c(-c2ccc3[nH]c(=O)[nH]c3c2)cccc1-c1nnc(C(F)(F)F)o1 [Example 198, 5-[2-Methyl-3-[5-(trifluoromethyl)-1,3,4-oxadiazol-2-yl]phenyl]-1,3-dihydrobenzimidazol-2-one] | 20
33 | Cc1c(-c2ccc3[nH]c(=O)[nH]c3c2)cccc1-c1ncno1 [Example 199, 5-[2-Methyl-3-(1,2,4-oxadiazol-5-yl)phenyl]-1,3-dihydrobenzimidazol-2-one] | 63.1
34 | Cc1c(-c2ccc3[nH]c(=O)sc3c2)cccc1-c1ncno1 [Example 200, 6-[2-Methyl-3-(1,2,4-oxadiazol-5-yl)phenyl]-3H-1,3-benzothiazol-2-one] | 2510
35 | Cc1c(-c2ccc3[nH]c(=O)[nH]c3c2)cccc1-c1nc(C2CC2)no1 [Example 201, 5-(3-(3-cyclopropyl-1,2,4-oxadiazol-5-yl)-2-methylphenyl)-1H-benzo[d]imidazol-2(3H)-one] | 10
36 | Cc1c(-c2ccc3[nH]c(=O)sc3c2)cccc1-c1nc(C2CC2)no1 [Example 202, 6-[3-(3-Cyclopropyl-1,2,4-oxadiazol-5-yl)-2-methyl-phenyl]-3H-1,3-benzothiazol-2-one] | 3980
37 | Cc1noc(-c2cccc(-c3ccc4[nH]c(=O)[nH]c4c3)c2C)n1 [Example 203, 5-[2-Methyl-3-(3-methyl-1,2,4-oxadiazol-5-yl)phenyl]-1,3-dihydrobenzimidazol-2-one] | 39.8
38 | Cc1noc(-c2cccc(-c3ccc4[nH]c(=O)sc4c3)c2C)n1 [Example 204, 6-[2-Methyl-3-(3-methyl-1,2,4-oxadiazol-5-yl)phenyl]-3H-1,3-benzothiazol-2-one] | 2510
39 | Cc1c(-c2ccc3[nH]c(=O)[nH]c3c2)cccc1-c1nc(C(F)(F)F)no1 [Example 205, 5-[2-Methyl-3-[3-(trifluoromethyl)-1,2,4-oxadiazol-5-yl]phenyl]-1,3-dihydrobenzimidazol-2-one] | 39.8
40 | Cc1c(-c2ccc3[nH]c(=O)[nH]c3c2)cccc1-c1ncon1 [Example 206, 5-[2-Methyl-3-(1,2,4-oxadiazol-3-yl)phenyl]-1,3-dihydrobenzimidazol-2-one] | 31.6
41 | Cc1c(-c2ccc3[nH]c(=O)sc3c2)cccc1-c1ncon1 [Example 207, 6-[2-Methyl-3-(1,2,4-oxadiazol-3-yl)phenyl]-3H-1,3-benzothiazol-2-one] | 126
42 | N#Cc1ccc(OC(F)(F)F)c(-c2ccc3[nH]c(=O)[nH]c3c2)c1Cl [Example 208, 2-Chloro-3-(2-oxo-1,3-dihydrobenzimidazol-5-yl)-4-(trifluoromethoxy)benzonitrile] | 15.8
43 | N#Cc1ccc(Cl)c(-c2ccc3[nH]c(=O)[nH]c3c2)c1OC(F)(F)F [Example 209, 4-Chloro-3-(2-oxo-1,3-dihydrobenzimidazol-5-yl)-2-(trifluoromethoxy)benzonitrile] | 15.8
